Assay results as given in the supplement of paper PMC5908809.

Legend:
Settings in all cases: 72 h
[1] = tested on: normal primary NK cells, pool 1 (3 donors) (IL-2 2.5 ng/mL); experiment: drug sensitivity score (DSS) (DSS units); higher = more sensitive; extreme values may be limits of the assay
NK-YS (IL-2 2.5 ng/mL) [2] = experiment: as above
SNK-6 (IL-2 2.5 ng/mL) [3] = experiment: as above
KHYG-1 (IL-2 2.5 ng/mL) [4] = experiment: as above
YT (IL-2 2.5 ng/mL) [5] = experiment: as above
NK-92 (IL-2 2.5 ng/mL) [6] = experiment: as above
[7] = tested on: normal primary NK cells, pool 1 (3 donors), resting (IL-2 0 ng/mL); experiment: as above
DERL-7 (IL-2 2.5 ng/mL) [8] = experiment: as above
KAI3 (IL-2 2.5 ng/mL) [9] = experiment: as above
NKL (IL-2 2.5 ng/mL) [10] = experiment: as above
[11] = tested on: normal primary NK cells, pool 1 (3 donors) (IL-2 2.5 ng/mL); experiment: percent inhibition of viability; higher = more inhibition
NK-YS (IL-2 2.5 ng/mL) [12] = experiment: as above
SNK-6 (IL-2 2.5 ng/mL) [13] = experiment: as above
KHYG-1 (IL-2 2.5 ng/mL) [14] = experiment: as above
YT (IL-2 2.5 ng/mL) [15] = experiment: as above
NK-92 (IL-2 2.5 ng/mL) [16] = experiment: as above
[17] = tested on: normal primary NK cells, pool 1 (3 donors), resting (IL-2 0 ng/mL); experiment: as above
DERL-7 (IL-2 2.5 ng/mL) [18] = experiment: as above
KAI3 (IL-2 2.5 ng/mL) [19] = experiment: as above
NKL (IL-2 2.5 ng/mL) [20] = experiment: as above
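Wherever percent inhibition of viability is given: normalised to DMSO-only wells as negative and benzethonium chloride as positive control.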

CC(C)n1nc(-c2ccc3oc(N)nc3c2)c2c(N)ncnc21 [INK128] (max concentration tested 1000 nM)
Settings | drug sensitivity score
DERL-7 (IL-2 2.5 ng/mL) [8] | 19.2
KAI3 (IL-2 2.5 ng/mL) [9] | 13.1
KHYG-1 (IL-2 2.5 ng/mL) [4] | 8.73
NK-92 (IL-2 2.5 ng/mL) [6] | 14.1
NK-YS (IL-2 2.5 ng/mL) [2] | 10.7
NKL (IL-2 2.5 ng/mL) [10] | 17.1
SNK-6 (IL-2 2.5 ng/mL) [3] | 10.6
YT (IL-2 2.5 ng/mL) [5] | 14.1
[1] | 7.91
[7] | 4.47

percent inhibition of viability [%]
Settings | DERL-7 (IL-2 2.5 ng/mL) [18] | KAI3 (IL-2 2.5 ng/mL) [19] | KHYG-1 (IL-2 2.5 ng/mL) [14] | NK-92 (IL-2 2.5 ng/mL) [16] | NK-YS (IL-2 2.5 ng/mL) [12] | NKL (IL-2 2.5 ng/mL) [20] | SNK-6 (IL-2 2.5 ng/mL) [13] | YT (IL-2 2.5 ng/mL) [15] | [11] | [17]
0.1 nM | -4.21 | -5.24 | -4.72 | -2.13 | -11.2 | 0.39 | -24 | -1.84 | -6.36 | -19.8
1 nM | -1.17 | -1.02 | 1.98 | 9.63 | -5.11 | 1.73 | -3.64 | 1.95 | 5.5 | 6.92
10 nM | 39.4 | 24.1 | 3.77 | 22.5 | 6.74 | 38.8 | 15.8 | 15.8 | 19.8 | 15.4
100 nM | 76.1 | 54.6 | 33 | 60.8 | 51.9 | 63.9 | 45.9 | 65.5 | 31.3 | 17.9
1000 nM | 91.4 | 70.3 | 83.9 | 74.7 | 71.6 | 70.2 | 41.9 | 78 | 40.5 | 34.9

CON(C)C(=O)N1N=C(c2cc(F)ccc2F)S[C@@]1(CCCN)c1ccccc1 [ARRY-520] (max concentration tested 1000 nM)
Settings | drug sensitivity score
DERL-7 (IL-2 2.5 ng/mL) [8] | 30.5
KAI3 (IL-2 2.5 ng/mL) [9] | 14.6
KHYG-1 (IL-2 2.5 ng/mL) [4] | 30.3
NK-92 (IL-2 2.5 ng/mL) [6] | 22.4
NK-YS (IL-2 2.5 ng/mL) [2] | 23.1
NKL (IL-2 2.5 ng/mL) [10] | 26
SNK-6 (IL-2 2.5 ng/mL) [3] | 27.8
YT (IL-2 2.5 ng/mL) [5] | 13.2
[1] | 0
[7] | 0

percent inhibition of viability [%]
Settings | DERL-7 (IL-2 2.5 ng/mL) [18] | KAI3 (IL-2 2.5 ng/mL) [19] | KHYG-1 (IL-2 2.5 ng/mL) [14] | NK-92 (IL-2 2.5 ng/mL) [16] | NK-YS (IL-2 2.5 ng/mL) [12] | NKL (IL-2 2.5 ng/mL) [20] | SNK-6 (IL-2 2.5 ng/mL) [13] | YT (IL-2 2.5 ng/mL) [15] | [11] | [17]
0.1 nM | -10.8 | -7.27 | -0.04 | -13.1 | -0.87 | 1.77 | 21 | 1.27 | -14.6 | -28.7
1 nM | 1.72 | -8.08 | -0.06 | -13.4 | 0.68 | -1.49 | 12.7 | 1.15 | -9.86 | -37.1
10 nM | 98.7 | 45.9 | 98.8 | 45.1 | 71.2 | 78.1 | 81.8 | 7.04 | -12 | -37.4
100 nM | 100 | 49.6 | 107 | 92.3 | 77 | 93.3 | 88 | 65.3 | 2.21 | -9.59
1000 nM | 100 | 49.5 | 103 | 89.1 | 76.6 | 87.7 | 87.7 | 65.7 | -7.49 | -26.9
